Measurements published in ChEMBL document CHEMBL1201862, “PubChem BioAssay data set” (2004).
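Values below derive from 48-hour exposures of cells grown in 96-well plates, with endpoints linearly interpolated between the two concentrations bracketing the appropriate inhibition level. The concentration for 50% growth inhibition is given as GI50.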 The source made the active and inactive calls. No stated cut-off is given here; in the data, active = GI50 up to about 1.1 µM and inactive = higher.

Key:
Assay in all cases: inhibition of tumour cell growth, NCI panel, 48 h
[1] = test system: DLD-1
[2] = test system: LXFL 529
[3] = test system: Hs-578T
[4] = test system: BT-549
[5] = test system: MDA-MB-435
[6] = test system: T47D
[7] = test system: HOP-18
[8] = test system: 786-0
[9] = test system: RXF 631

Measured: GI50

CC(OC(C)(C)C)[C@H](NC(=O)OCC(Cl)(Cl)Cl)C(=O)O (stereo not given in full)
inactive: [1] > 100 µM | [2] > 100 µM

COc1ccc2c(c1)CCN=C2Cc1cc(OC)c(OC)cc1CCCl
inactive: [3] 22.1 µM | [4] > 100 µM | [5] 52 µM | [6] 53.1 µM

O=C1NC2=C(CCCC/C2=N\O)C12CCCCC2
inactive: [1] > 100 µM | [2] > 100 µM

O=C1ON(Cc2ccccc2)C(c2ccccc2)N1c1ccccc1 (stereo not given)
inactive: [1] > 100 µM | [7] > 100 µM

Clc1cc2c(c(CSC3=NCN(CC4CC4)CN3)c1)OCOC2
inactive: [3] 33.7 µM | [4] 19.1 µM | [8] 19.8 µM | [5] 21.8 µM | [6] 12.9 µM

COC(=O)c1ccc(/N=N/N(C)COc2ccc([N+](=O)[O-])cc2)cc1
inactive: [1] > 100 µM

O=NN1C(c2ccccc2)CCCC1c1ccccc1 (stereo not given)
inactive: [1] > 90.6 µM | [7] > 77.8 µM

CCOC(=O)CC(=O)CSc1c(-c2ccccc2)c(=O)n(-c2ccccc2)c(=S)n1-c1ccccc1
inactive: [3] > 100 µM | [8] > 100 µM | [5] > 100 µM | [6] > 100 µM

N#CC1(C#N)C(=O)c2ccncc2C1=O
inactive: [3] > 100 µM | [4] > 100 µM | [5] > 100 µM | [6] > 100 µM

C=CCN1/C(=C(\C#N)c2nc3ccccc3[nH]2)Sc2c1nc[nH]c2=O
inactive: [1] > 100 µM | [2] > 100 µM

O=C1C(Cl)N(c2cccc(Cl)c2)C1c1c[nH]c2ccccc12 (stereo not given)
inactive: [2] > 100 µM

COc1cc(/C=C/C(=O)C(C)(C)C)cc(OC)c1OC
inactive: [1] 37.9 µM | [8] 53.7 µM | [2] 22.8 µM | [7] > 100 µM

O=C1C=CC2=[N+]([O-])C(c3ccccc3)(c3ccccc3)/C(=N\c3ccccc3)C2=C1
inactive: [1] 1.53 µM | [9] 3.05 µM | [2] 1.78 µM | [7] 2.92 µM

Cc1ccc(Nc2n[nH]c(NS(=O)(=O)c3cc(C(=O)Nc4ccc(Cl)cc4)c(Cl)cc3S)n2)cc1
inactive: [3] 84.9 µM | [4] > 100 µM | [5] > 100 µM | [6] 63.2 µM

C=C(C)[C@@H]1CCC2=C[C@H](CC(C)=CC3=CC(C)=C(O3)[C@@H]1OC)OC2=O
inactive: [3] 33.6 µM | [4] 51.6 µM | [5] > 100 µM | [6] > 100 µM

C[C@]12CCC(=O)C(O)=C1CC[C@@H]1[C@@H]2CC[C@]2(C)C(=O)CC[C@@H]12 [FORMESTANE]
inactive: [3] > 100 µM | [1] > 100 µM | [4] > 100 µM | [9] > 100 µM | [8] > 100 µM | [5] > 100 µM | [2] 59.3 µM | [6] > 100 µM

CC(=O)OCC1OC(OCCCCCCO)C(OC(C)=O)C(OC(C)=O)C1OC(C)=O (stereo not given)
inactive: [3] > 100 µM | [4] > 100 µM | [5] > 100 µM

CN1NC(c2ccccc2)=C(C#N)C(=O)CC1c1ccc(Br)cc1 (stereo not given)
inactive: [1] 26.1 µM | [2] 35.7 µM | [7] 17.9 µM

COC(=O)C12CC3CC(CC(C(=O)O)(C3)C1)C2
inactive: [9] > 100 µM | [8] > 100 µM | [2] > 100 µM | [7] > 100 µM

CC(=O)O[C@]12CCCCCC1C1(O)C(O)CCCC[C@H]12 (stereo not given in full)
inactive: [8] > 100 µM | [2] > 100 µM
